Key:
[1] = system: TOM20-V5-APEX2; assay: Live-cell APEX labeling using JF probes; assay type: cell-based, Human; settings: 5 min pre-incubation, 1 mM H2O2 1 min, TOM20-V5-APEX2-expressing cells
Protocol: To visualize various APEX2-POIs in live cells, JF or JFA (50-100 μM) and 1 mM H2O2 were treated to APEX2-POI expressing cells during the live stage. After treatment, cells were washed thrice with DPBS and then fixed with 4% PFA in 1×DPBS for 15 minutes at room temperature. For immuno-fluorescence imaging, cells were permeabilized with −20° C. methanol for 5 minutes, followed by the standard immunofluorescence staining protocol. To detect JF or JFA fluorescence and immunofluorescence, we used the GFP channel (excitation at 488 nm), RFP channel (excitation at 561 nm), and Cy5 channel (excitation at 647 nm) of a confocal light microscope (FV3000, Olympus, Japan). HeLa cells were used for imaging experiments.
Further, the APEX reaction in live cells utilizing the JF probes in cells expressing TOM20-V5-APEX2 at the cytosolic face of the outer mitochondrial membrane (OMM) were examined. Each JF probe (JF, JFA, JFT1, JFT2, and JFT3) was pre-incubated with the cells for 5 min, followed by the addition of 1 mM H2O2 and incubation for 1 min to activate the peroxidase.

[2] = system: endogenous peroxidases; assay: Reaction with endogenous peroxidases in live cells; assay type: cell-based; settings: high concentrations (≥100 μM) for 1 h in live cells
Protocol: However, our focus was on utilizing JFT for CLEM imaging under fixed conditions. For live-cell APEX2 labeling experiments, JF or JFA (50-100 μM) was incubated with 1 mM H2O2 for 1 min. Both JF and JFA are cell-permeable and can react with APEX2 under live-cell conditions. […] We observed that a 5-min incubation of high concentrations of JFT1 ([…]) and H2O2 (0.5-1 mM) can generate selective FLEX labeling where APEX2-POIs are expressed (see Methods for details). For live-cell experiments, it would be highly advantageous to further develop JF probes with negligible activity against endogenous peroxidase in live-cell conditions while still maintaining reactivity for the APEX or HRP reaction. Since JFT was synthesized from JFA, this strategy opens up the possibility of generating further variations in JFT or other JF-based probes using various azido-click moieties. This approach could lead to the development of improved probes with enhanced performance for live-cell imaging applications.

[3] = target: T1, HRP (Armoracia rusticana, UniProt P00433); assay: Polymerization of JF catalyzed by HRP; assay type: biochemical, horseradish
T1 sequence (P00433 31-338 limits assumed): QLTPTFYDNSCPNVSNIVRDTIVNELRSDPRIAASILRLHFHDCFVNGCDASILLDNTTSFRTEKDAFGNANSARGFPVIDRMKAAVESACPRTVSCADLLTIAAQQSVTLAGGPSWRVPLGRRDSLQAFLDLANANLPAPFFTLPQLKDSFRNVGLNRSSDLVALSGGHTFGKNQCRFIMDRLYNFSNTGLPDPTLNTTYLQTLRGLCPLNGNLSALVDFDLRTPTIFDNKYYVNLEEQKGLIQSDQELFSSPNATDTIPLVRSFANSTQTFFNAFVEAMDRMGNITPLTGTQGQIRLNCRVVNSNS
Protocol: JF (400 μM) was prepared by dissolving the powder in DMSO. To induce the polymerization of JF, 10 μM of HRP was added along with 2 mM H2O2. JF-precipitate starts forming after 30 minutes of incubation with HRP and H2O2. This reaction was carried out at room temperature for 24 h to acquire the polymerized JF. The mixture was centrifuged at 15,000 g for 10 min to separate the polymerized JF product from non-reacted JF.

[4] = system: HeLa cells transiently expressing TMEM192-V5-APEX2; assay: Lysosome diameter and lysosome-mitochondria contact under lysosomal stressors (JFT1 labeling by TMEM192-V5-APEX2); assay type: cell-based, Human; settings: for fold increase of lysosomal diameter vs DMSO treatment / mean lysosomal diameter: BFA 100 nM or U18666A 2 μg/ml, 18 h; for mitochondria-lysosome co-localization: HeLa cells co-expressing mito-mEosEM and TMEM192-V5-APEX2; for mean lysosomal diameter: mean (±SEM)
Protocol: Fluorescently labeled lysosome (JFT1-labeled or Lysotracker Red, RFP channel) and mitochondria (mito-mEosEM, GFP channel) area were analyzed using Fiji/ImageJ (National Institutes of Health, USA). Area corresponding to the colocalization of lysosome-mitochondria were delimited manually by thresholding keeping the same threshold for control. The colocalized area was measured for 5 cells in each group. To measure lysosome diameter, we utilized Fiji/ImageJ. Initially, the images were converted to 8-bit and the pixel measurements were calibrated using a scale bar. Circular lysosomes were then selected and a line representing the diameter of each selected lysosome was drawn, referencing the limiting membrane according to the JFT1 fluorescence signal. Subsequently, we utilized the “analyze and measure” feature of ImageJ, which generates a table with various parameters such as area and length. To convert the length from pixels to micrometers, we applied the following formula: (pixel diameter/pixels on the scale bar)×10 μm. Once the values were converted, they were plotted and statistical analysis for unpaired t-test was performed using Prism GraphPad software ([…] et al., 2021). HeLa cells transiently expressing TMEM192-V5-APEX2 were plated on coverslips (thickness no. 1.5, radius 18 mm). The cells were then treated with DMSO or U18666A (2 ug/ml), Bafilomycin A1 (100 nM) in DMEM for 18 h at 37° C. and washed three times with cold DPBS. The cells were fixed in 4% paraformaldehyde for 15 min at room temperature. Next, JFT1 labeling was done using 100 μM of the probe and 1 mM H2O2 for 5 min. Reaction was quenched and cells were permeabilized for immunofluorescence imaging with cold methanol for 5 min at -20° C., followed by washing with DPBS and blocking for 1 h with 2% bovine serum albumin in DPBS at room temperature.

Structure (SMILES) | fluorescence staining in live cells [1] | reactivity with endogenous peroxidases [2] | precipitate formation upon HRP-mediated reaction ([3]; HRP and H2O2) | time at which JF-precipitate starts forming ([3]; JF 400 μM, 10 μM HRP, 2 mM H2O2, room temperature) [min] | fold increase of lysosomal diameter vs DMSO treatment [4] [fold] | mitochondria-lysosome co-localization [4] | mean lysosomal diameter [4] [μm]
CC[n+]1c(/C=C/c2ccc(O)cc2)sc2ccccc21 [JF, (E)-3-ethyl-2-(4-hydroxystyryl)benzo[d]thiazol-3-ium, reference compound] | red fluorescence stains | can also react with endogenous peroxidases | macroscopic precipitate deposition | 30 |  |  | 
C#CC[n+]1c(/C=C/c2ccc(O)cc2)sc2ccccc21 [JFA, (E)-2-(4-hydroxystyryl)-3-(prop-2-yn-1-yl)benzo[d]thiazol-3-ium] | red fluorescence stains | can also react with endogenous peroxidases |  |  |  |  | 
CCN(CC)CCO[C@H]1CC[C@@]2(C)C(=CC[C@@H]3[C@@H]2CC[C@]2(C)C(=O)CC[C@@H]32)C1 [U18666A] |  |  |  |  | 2.2 | enhanced co-localization | 0.87
CO/C1=C\C(C)=C\[C@@H](C)[C@@H](O)[C@@H](C)C/C(C)=C/C=C/[C@H](OC)[C@@H]([C@@H](C)[C@@H](O)[C@H](C)[C@@]2(O)C[C@@H](O)[C@H](C)[C@@H](C(C)C)O2)OC1=O [Bafilomycin A1] |  |  |  |  | 2.7 | more merged patterns | 1.20
